# Experimental data reported in patent US20210177892A1, “PREVENTION AND TREATMENT OF INFECTIOUS DISEASE USING LOW CONCENTRATION HYPOCHLOROUS ACID SOLUTIONS” (Wonder Spray, LLC, priority 2019, published 2021).
# Assays:
# [1] = system: Streptococcus pneumoniae ATCC 49619; test: Kill Time Study, Streptococcus pneumoniae; assay type: cell-based; conditions: FIG. 3
# Protocol: (§1) For example, FIG. 3 and FIG. 4 illustrate tables of the effect of a solution of HOCl on Streptococcus pneumoniae and Streptococcus pyogenes, respectively. The organisms in this test were prepared by inoculating the surface of about 5% Sheep blood agar plates, incubated at about 30 to 35° C. for 18 to 24 hours. Following the incubation period, the plates were washed with sterile Serological Saline Solution to harvest the microorganisms used and dilutions with Saline were made, plated on blood agar and incubated at 30 to 35° C. for 24-48 hours to determine the concentration. The inoculum level was then adjusted to […] for use as a stock suspension. Stock suspensions were well mixed and homogenized at each inoculation interval.
# (§2) Positive controls were performed at initiation and completion by spread plating to enumerate inoculum levels and verify culture purity during testing and Negative controls were performed to establish sterility of media, reagents, and materials used at initiation. Neutralizer Suitability using Modified Letheen Broth (MLB) was performed concurrently with Kill Time testing to confirm the recovery of <100 CFU of the test organism in the subculture media in the presence of product. Duplicate 10 ml containers for each treated specimen or material concentration was prepared, equilibrated to 25±2° C., and 0.1 ml of inoculum is added to each container to achieve a final concentration of 10^6 cfu/ml.
# (§3) Serial dilutions from each replicate were made at intervals of 15 second, 30 second, 1 minute and 5 minutes using 1 ml of the inoculated test product into 9 ml MLB from 1:10 to 1:1000000. Subsequently, 1 ml from each dilution was spread plated on 5% Sheep Blood agar plate in duplicate, incubated at 30 to 35° C. for 48 hours. After the incubation period, all plates were counted to determine the number of microorganisms, results are averaged and reported as log 10 reductions.
# [2] = system: Streptococcus pyogenes ATCC 49399; test: Kill Time Study, Streptococcus pyogenes; assay type: cell-based; conditions: FIG. 4
# Protocol: as §1, §2, §3
# [3] = system: E. coli; conditions: 50 mM (2.6 ppm), within 5 minutes; cited from earlier work
# [4] = system: f2 RNA; conditions: cited from earlier work
# [5] = inhalation; cited from earlier work
smiles,measurement,setting,value
"OCl [HOCl, Hypochlorous acid]",time in which bacteria that cause pneumonia are effectively killed,[1],less than 15 seconds
same,cfu/ml of Streptococcus pneumoniae after the HOCl solution was applied,[1]; after fifteen seconds,less than 10 cfu/ml
same,log 10 reduction for Streptococcus pneumoniae,[1]; after fifteen seconds,6.057 log 10
same,percent reduction for Streptococcus pneumoniae,[1]; after fifteen seconds,99.99%
same,time in which bacteria that cause strep throat are effectively killed,[2],less than 15 seconds
same,cfu/ml of Streptococcus pyogenes after the HOCl solution was applied,[2]; after fifteen seconds,less than 10 cfu/ml
same,log 10 reduction for Streptococcus pyogenes,[2]; after fifteen seconds,6.086 log 10
same,percent reduction for Streptococcus pyogenes,[2]; after fifteen seconds,99.99%
same,inhibition of DNA synthesis in E. coli,[3],ninety-six
same,inhibition of the growth of E. coli,[3],completely inhibited the growth
same,inactivation of naked f2 RNA compared with RNA in intact phage,[4],inactivated naked f2 RNA at the same rate as RNA in intact phage
same,adverse effects of inhaling the aerosolized form,[5],no adverse effects
